The text below walks through data of patent US20200407398A1, “Short Proline-Rich Lipopeptide Potentiates Minocycline and Rifampicin Against Multidrug-and Extensively Drug-Resistant Pseudomonas Aeruginosa” (priority 2018, published 2020).

Assay type in all cases: cell-based
Series [1] deals with E. coli CANWARD-2011 97615 (gentamicin-, tobramycin-, ciprofloxacin-resistant) aac(3′)iia. In short, it runs like this: (§1)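 MICs were determined by CLSI broth microdilution in Mueller-Hinton broth, using 2-fold serial dilutions and an inoculum of 5×10^5 CFU/mL. Plates were incubated 18 hours at 37° C. The MIC was the lowest concentration preventing visible turbidity, confirmed by absorbance at 590 nm.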

Series [2] deals with S. maltophilia CAN-ICU 62584. In short, it runs like this:
as §1

Series [3] has as its system methicillin-susceptible Staphylococcus epidermidis CANWARD-2008 81388. Particulars: methicillin-susceptible CANWARD-2008 81388. In short, it runs like this: as §1
For the next series, the system named is pig erythrocytes. In outline: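 Washed pig erythrocytes in PBS were mixed with 2-fold serial dilutions of peptide and incubated for 1 h at 37° C. Released hemoglobin in the supernatant was read at 570 nm, with PBS and 0.1% Triton X-100 as controls. MHC was the minimum concentration giving 5% hemolysis.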

Usually MIC stands for the lowest concentration that inhibits growth of the organism.

Peptide text beside a SMILES is read from it. * marks the point of attachment. Lauroyl = CCCCCCCCCCCC(=O)*

`CCCCCCCCCCCC(=O)N1CCC[C@H]1C(=O)N[C@@H](CCCNC(=N)N)C(=O)N1CCC[C@H]1C(=O)N[C@@H](CCCNC(=N)N)C(=O)N1CCC[C@H]1C(=O)N[C@@H](CCCNC(=N)N)C(=O)N1CCC[C@H]1C(N)=O` [Compound C12-PRP, CH3(CH2)10CO-PRPRPRP-NH2] (Lauroyl-PRPRPRP-NH2): the MIC was more than 128 µg/mL in series [1], more than 128 µg/mL in series [2] and 32 µg/mL in series [3]. The “MHC (minimum concentration that resulted in 5% red blood cell hemolysis)” value with pig erythrocytes is more than 512 µg/mL. Besides, the hemolysis in the series with pig erythrocytes (red cells of porcine, 512 μg/mL) is listed as 4.6±0.2%.
